The values that follow are results of earlier work, collected in patent publication US20200129471A1, “USE OF CANNABIS TO TREAT FIBROMYALGIA, METHODS AND COMPOSITIONS THEREOF” (ONE WORLD CANNABIS LTD, priority 2015, published 2020).

For the data set the following is noted: administered to humans for 30 days.

For the compound `C=C(C)[C@@H]1CCC(C)=C[C@H]1c1c(O)cc(CCCCC)cc1O` [CBD, cannabidiol], the tolerability result is reported as “tolerated”.
